Measurements from PMC10504751, “Chalcone/1,3,4-Oxadiazole/Benzimidazole hybrids as novel anti-proliferative agents inducing apoptosis and inhibiting EGFR & BRAFV^600E” (BMC Chemistry, 2023).
Several values for one entry are separate records, joined by “and”; a condition that tells them apart may be missing. Equal values may be shown once. Read-outs that look alike come from different tables or passages of the source.

Legend:
[1] = MTT cell viability assay in normal cells; format: cell-based; conditions: human, MCF-10A normal mammary epithelial cells
How it was run: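 MTT read-out (540 nm after DMSO solubilization) of viability in non-tumour MCF-10A breast epithelial cells. Compounds applied at 50 µM in 0.1% DMSO, cells incubated 4 days at 37°C in quadruplicate.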

[2] = system: BAX in MCF-7; assay: BAX activation assay; conditions: for BAX Conc: MCF-7; for BAX Fold change: MCF-7, vs untreated control
Procedure: All reagents were brought to room temperature for at least 30 min before opening (except the human BAX-α Standard). Human BAX-α Standard solution was not be left at room temperature for more than 10 min. Duplicates of all standards, controls, and samples were run. The Assay Layout Sheet was used to determine the number of wells to be used, and any remaining wells were put with the desiccant back into the pouch, and the ziplock was sealed. Unused wells were stored at 4 ◦C. A total of 100 µL of Assay Buffer was pipetted into the S0 (0 pg/mL standard) wells. A total of 100 µL of Standards #1 through #6 was pipetted into the appropriate wells. A total of 100 µL of the samples was pipetted into the appropriate wells. The plate was gently tapped to mix the contents. The plate was sealed and incubated at room temperature on a plate shaker for 1 h at ~500 rpm. The contents of the wells were emptied and washed by adding 400 µL of wash solution to every well. The wash was repeated four more times for a total of five washes. After the final wash, the wells were emptied or aspirated and firmly the plate on a lint-free paper towel was tapped to remove any remaining wash buffer. A total of 100 µL of yellow antibody was pipetted into each well, except the Blank. The plate was sealed and incubated at room temperature on a plate shaker for 1 h at ~500 rpm. The contents of the wells were emptied and washed by adding 400 µL of wash solution to every well. The wash was repeated four more times for a total of five washes. After the final wash, the wells were emptied or aspirated, and the plate was firmly tapped on a lint-free paper towel to remove any remaining wash buffer. A total of 100 µL of blue Conjugate was added to each well, except the Blank. The plate was sealed and incubated at room temperature on a plate shaker for 30 min at ~500 rpm. The contents of the wells were emptied and washed by adding 400 µL of wash solution to every well. The wash was repeated four more times for a total of five washes. After the final wash, the wells were emptied or aspirated and the plate was firmly tapped on a lint-free paper towel to remove any remaining wash buffer. A total of 100 µL of Substrate Solution was pipetted into each well. It was incubated for 30 min at room temperature on a plate shaker at ~500 rpm. A total of 100 µL Stop Solution was pipetted into to each well. The plate reader was blanked against the Blank wells, and the optical density was read at 450 nm. The average net optical density (OD) bound for each standard and sample was calculated by subtracting the average Blank OD from the average OD for each standard and sample. Using linear graph paper, the Average Net OD for each standard versus BAX concentration in each standard were plotted. A straight line was approximated through the points. The concentration of BAX in the unknowns could be determined by interpolation.

[3] = system: Caspase-3 in MCF-7 breast cancer cells; assay: Caspase-3 assay; conditions: for Caspase-3 Fold change: MCF-7, vs untreated control; for Caspase-3 Conc: MCF-7 breast cancer cells
Procedure: All reagents were allowed to reach room temperature before use. All liquid reagents were gently mixed before use. The number of 8-well strips needed for the assay was determined. These were inserted into the frame(s) for current use. A total of 100 µL of the Standard Diluent Buffer was added to the zero standard wells. Well(s) reserved for chromogen blank were left empty. A total of 100 µL of standards and controls or diluted samples was added to the appropriate microtiter wells. The sample dilution chosen was optimized for each experimental system. The side of the plate was gently tapped on to
mix. Wells were covered with a plate cover and incubated for 2 h at room temperature. The solution was thoroughly aspirated or decanted from the wells and the liquid was discarded; wells were washed four times. […] The side of the plate was gently tapped on to mix. The plate was covered with a plate cover and incubated for 1h at room temperature. The solution was thoroughly aspirated or decanted from wells and the liquid was discarded; wells were washed four times. A total of 100 µL Anti-Rabbit IgG HRP Working Solution was added to each well except the chromogen blank(s). The working dilution was prepared as described in Preparing IgG HRP. Wells were covered with the plate cover and incubated for 30 min at room temperature. The solution was thoroughly aspirated or decanted from the wells and the liquid was discarded. Wells were washed four times. A total of 100 µL of Stabilized Chromogen was added to each well. The liquid in the wells began to turn blue. It was incubated for 30 min at room temperature and in the dark. The incubation time for chromogen substrate was determined by the microtiter plate reader used. Many plate readers have the capacity to record a maximum optical density (O.D.) of 2.0. The O.D. values were monitored, and the substrate reaction was stopped before the O.D. of the positive wells exceeds the limits of the instrument. The O.D. values at 450 nm could only be read after the Stop Solution had been added to each well. A total of 100 µL of Stop Solution was added to each well. The side of the plate was gently tapped to mix. The solution in the wells changed from blue to yellow. The absorbance of each well was read at 450 nm, having blanked the plate reader against a chromogen blank composed of 100 µL each of Stabilized Chromogen and Stop Solution. The plate was read within 2 h after adding the Stop Solution. A curve fitting software was used to generate the standard curve.
The concentrations for unknown samples and controls from the standard curve were read. Value(s) obtained for sample(s) by the appropriate dilution factor were multiplied to correct for the dilution in step 3.

[4] = molecular target: T1, EGFR (Homo sapiens, UniProt P00533); assay: EGFR-TK inhibitory assay; format: biochemical; conditions: for IC50: read-out: EGFR Inhibition IC50 ± SEM
T1 construct: EGFR cytoplasmic domain (EGFR-CD, amino acids 645–1186); His6 (N); made in house; host or cells: Sf-9 insect cells (baculovirus; pBlueBacHis2B / pFASTBacHTc)

[5] = system: Caspase-9 in MCF-7 breast cancer cells; assay: Caspase-9 assay; format: cell-based, human; conditions: for Caspase-9 Fold change: MCF-7, vs untreated control; for Caspase-9 Conc: MCF-7 breast cancer cells
[6] = molecular target: BRAF^V600E; assay: biochemical
Procedure: To further denature the protein, heat (70° C) was applied for 5 min. […] 10 µL of each reaction was loaded into the precast plates and electrophoresis was allowed to proceed. After completion of electrophoresis, the front part of the precast gel plate (holding hot ATP) was cut and afterwards cast-off. The dried gel was developed using a phosphor screen.

[7] = system: COLO 205; assay: NCI one-dose SRB anti-proliferative screen; format: cell-based; conditions: Homo sapiens, read-out: Cell growth inhibition %
How it was run: (§1)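 Single dose, 10 µM; SRB colorimetric read-out; run as part of the 60-line, nine-subpanel tumour panel.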

[8] = system: SK-OV-3; assay: NCI one-dose SRB anti-proliferative screen; format: cell-based; conditions: Homo sapiens, read-out: Cell growth inhibition %
How it was run: as §1

[9] = system: SW-620; assay: NCI one-dose SRB anti-proliferative screen; format: cell-based; conditions: Homo sapiens, read-out: Cell growth inhibition %
How it was run: as §1

[10] = system: EKVX; assay: NCI one-dose SRB anti-proliferative screen; format: cell-based; conditions: Homo sapiens, read-out: Cell growth inhibition %
How it was run: as §1

[11] = system: MCF7; assay: NCI one-dose SRB anti-proliferative screen; format: cell-based; conditions: Homo sapiens, read-out: Cell growth inhibition %
How it was run: as §1

[12] = system: SK-MEL-5; assay: NCI one-dose SRB anti-proliferative screen; format: cell-based; conditions: Homo sapiens, read-out: Cell growth inhibition %
How it was run: as §1

[13] = system: CCRF-CEM; assay: NCI one-dose SRB anti-proliferative screen; format: cell-based; conditions: Homo sapiens, read-out: Cell growth inhibition %
How it was run: as §1

[14] = system: KM12; assay: NCI one-dose SRB anti-proliferative screen; format: cell-based; conditions: Homo sapiens, read-out: Cell growth inhibition %
How it was run: as §1

[15] = system: DU-145; assay: NCI one-dose SRB anti-proliferative screen; format: cell-based; conditions: Homo sapiens, read-out: Cell growth inhibition %
How it was run: as §1

[16] = system: HOP-62; assay: NCI one-dose SRB anti-proliferative screen; format: cell-based; conditions: Homo sapiens, read-out: Cell growth inhibition %
How it was run: as §1

[17] = system: UACC-257; assay: NCI one-dose SRB anti-proliferative screen; format: cell-based; conditions: Homo sapiens, read-out: Cell growth inhibition %
How it was run: as §1

[18] = system: HCC-2998; assay: NCI one-dose SRB anti-proliferative screen; format: cell-based; conditions: Homo sapiens, read-out: Cell growth inhibition %
How it was run: as §1

[19] = COLO 205, Colon cancer, NCI one dose
[20] = SK-OV-3, Ovarian Cancer, NCI one dose
[21] = SW-620, Colon cancer, NCI one dose
[22] = EKVX, Non-Small Cell Lung Cancer, NCI one dose
[23] = MCF7, Breast cancer, NCI one dose
[24] = SK-MEL-5, Melanoma, NCI one dose
[25] = CCRF-CEM, Leukemia, NCI one dose
[26] = KM12, Colon cancer, NCI one dose
[27] = DU-145, Prostate Cancer, NCI one dose
[28] = HOP-62, Non-Small Cell Lung Cancer, NCI one dose
[29] = UACC-257, Melanoma, NCI one dose
[30] = HCC-2998, Colon cancer, NCI one dose
[31] = COLO 205 (Colon Cancer), NCI one dose 10 µM
[32] = SK-OV-3 (Ovarian Cancer), NCI one dose 10 µM
[33] = SW-620 (Colon Cancer), NCI one dose 10 µM
[34] = EKVX (Non-Small Cell Lung Cancer), NCI one dose 10 µM
[35] = MCF7 (Breast Cancer), NCI one dose 10 µM
[36] = SK-MEL-5 (Melanoma), NCI one dose 10 µM
[37] = CCRF-CEM (Leukemia), NCI one dose 10 µM
[38] = KM12 (Colon Cancer), NCI one dose 10 µM
[39] = DU-145 (Prostate Cancer), NCI one dose 10 µM
[40] = HOP-62 (Non-Small Cell Lung Cancer), NCI one dose 10 µM
[41] = UACC-257 (Melanoma), NCI one dose 10 µM
[42] = HCC-2998 (Colon Cancer), NCI one dose 10 µM

T1 sequence (P00533 669-1210): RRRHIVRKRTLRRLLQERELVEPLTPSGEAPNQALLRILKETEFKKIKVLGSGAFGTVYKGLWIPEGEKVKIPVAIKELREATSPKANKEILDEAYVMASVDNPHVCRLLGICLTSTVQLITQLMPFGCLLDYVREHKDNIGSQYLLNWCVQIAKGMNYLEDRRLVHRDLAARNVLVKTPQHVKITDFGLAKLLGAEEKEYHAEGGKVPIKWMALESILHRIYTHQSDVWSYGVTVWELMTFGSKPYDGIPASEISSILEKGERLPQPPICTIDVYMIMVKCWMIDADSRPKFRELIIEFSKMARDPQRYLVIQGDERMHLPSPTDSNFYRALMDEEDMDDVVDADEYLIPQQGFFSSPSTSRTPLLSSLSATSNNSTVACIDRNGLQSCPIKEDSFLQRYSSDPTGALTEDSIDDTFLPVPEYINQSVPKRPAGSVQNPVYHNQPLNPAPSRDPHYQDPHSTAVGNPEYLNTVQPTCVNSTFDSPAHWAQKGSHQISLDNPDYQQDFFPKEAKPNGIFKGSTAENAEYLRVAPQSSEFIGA
Chain of BRAF^V600E (P28028 whole entry V585E): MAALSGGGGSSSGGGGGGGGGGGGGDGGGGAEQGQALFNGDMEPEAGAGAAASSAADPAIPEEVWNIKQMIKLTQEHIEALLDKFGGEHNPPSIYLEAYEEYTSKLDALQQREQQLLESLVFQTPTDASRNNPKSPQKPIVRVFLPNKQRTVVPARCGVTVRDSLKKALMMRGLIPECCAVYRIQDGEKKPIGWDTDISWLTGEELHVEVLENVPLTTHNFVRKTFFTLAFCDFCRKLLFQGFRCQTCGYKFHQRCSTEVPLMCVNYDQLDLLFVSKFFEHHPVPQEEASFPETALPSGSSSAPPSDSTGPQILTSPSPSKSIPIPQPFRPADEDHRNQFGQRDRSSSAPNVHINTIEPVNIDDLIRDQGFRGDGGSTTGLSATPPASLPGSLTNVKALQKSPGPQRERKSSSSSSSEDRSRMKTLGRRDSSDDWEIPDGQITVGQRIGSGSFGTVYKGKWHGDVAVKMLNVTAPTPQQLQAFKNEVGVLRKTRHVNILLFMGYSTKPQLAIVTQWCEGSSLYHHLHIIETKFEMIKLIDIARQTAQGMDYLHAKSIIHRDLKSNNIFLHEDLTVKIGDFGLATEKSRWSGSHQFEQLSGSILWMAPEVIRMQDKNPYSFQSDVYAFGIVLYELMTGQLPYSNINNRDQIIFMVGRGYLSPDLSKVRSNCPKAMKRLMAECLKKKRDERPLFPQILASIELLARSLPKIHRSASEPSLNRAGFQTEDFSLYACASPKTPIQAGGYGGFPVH

## COc1ccc(/C=C/C(=O)c2ccc(NC(=O)CSc3nnc(-c4ccc5[nH]c(-c6ccc(OC)cc6)nc5c4)o3)cc2)cc1 [Compound 7m, 2-{5-[2-(4-Methoxyphenyl)-1 H-benzo[d]imidazol-5-yl]-1,3,4-oxadiazol-2-ylthio}-N-{4-[(E)-3-(4-methoxyphenyl)acryloyl]phenyl}acetamide]
[1]
  viability at 96 h, 50 µM: 94%
[2]
  BAX Conc: 268.200 pg/mL
  BAX Fold change: 31.5 fold
[3]
  Caspase-3 Fold change: 7.20 fold
  Caspase-3 Conc: 473.60 ± 3.50 pg/mL
[4]
  IC50: 900 ± 100 nM
[5]
  Caspase-9 Fold change: 15.00 fold
  Caspase-9 Conc: 13.900 ng/mL
[6]
  IC50: 2200 ± 200 nM
[7]; [19]
  inhibition at 10 µM: 0%
[8]; [20]
  inhibition at 10 µM: 0%
[9]; [21]
  inhibition at 10 µM: 2%
[10]; [22]
  inhibition at 10 µM: 9.73%
[11]; [23]
  inhibition at 10 µM: 17.2%
[12]; [24]
  inhibition at 10 µM: 22.2%
[13]; [25]
  inhibition at 10 µM: 38.5%
[14]; [26]
  inhibition at 10 µM: 3.51%
[15]; [27]
  inhibition at 10 µM: 0%
[16]; [28]
  inhibition at 10 µM: 4.92%
[17]; [29]
  inhibition at 10 µM: 0%
[18]; [30]
  inhibition at 10 µM: 0%

## COc1ccc(-c2nc3cc(-c4nnc(SCC(=O)Nc5ccc(C(=O)/C=C/c6ccccc6)cc5)o4)ccc3[nH]2)cc1 [Compound 7k, 2-{5-[2-(4-Methoxyphenyl)-1 H-benzo[d]imidazol-5-yl]-1,3,4-oxadiazol-2-ylthio}-N-{4-[(E)-3-phenylacryloyl]phenyl}acetamide]
[1]
  viability at 96 h, 50 µM: 91%
[2]
  BAX Conc: 279.50 pg/mL and 279.500 pg/mL
  BAX Fold change: 33 fold and 33.0 fold
[3]
  Caspase-3 Fold change: 8 fold and 7.60 fold
  Caspase-3 Conc: 501.60 ± 4.00 pg/mL
[4]
  fold less potent than Erlotinib against EGFR: approximately 7 fold
  IC50: 550 ± 100 nM
[5]
  Caspase-9 Fold change: 17 fold and 17.00 fold
  Caspase-9 Conc: 15.900 ng/mL
[6]
  IC50: 1700 ± 200 nM
[7]; [19]
  inhibition at 10 µM: 0%
[8]; [20]
  inhibition at 10 µM: 0%
[9]; [21]
  inhibition at 10 µM: 0%
[10]; [22]
  inhibition at 10 µM: 13.9%
[11]; [23]
  inhibition at 10 µM: 50.3%
[12]; [24]
  inhibition at 10 µM: 49.2%
[13]; [25]
  inhibition at 10 µM: 48.2%
[14]; [26]
  inhibition at 10 µM: 15.6%
[15]; [27]
  inhibition at 10 µM: 9.04%
[16]; [28]
  inhibition at 10 µM: 0%
[17]; [29]
  inhibition at 10 µM: 0.49%
[18]; [30]
  inhibition at 10 µM: 0%

## COc1ccc(-c2nc3cc(-c4nnc(SCC(=O)Nc5ccc(C(=O)/C=C/c6ccccc6)cc5)o4)ccc3[nH]2)cc1OC [Compound 7p, 2-{5-[2-(3,4-Dimethoxyphenyl)-1 H-benzo[d]imidazol-5-yl]-1,3,4-oxadiazol-2-ylthio}-N-{4-[(E)-3-phenylacryloyl]phenyl}acetamide]
other
  melting point: 185 to 186 °C
[1]
  viability at 96 h, 50 µM: 87%
[4]
  IC50: 3500 ± 300 nM
[6]
  IC50: 4200 ± 300 nM
[7]; [31]
  inhibition at 10 µM: 0%
[8]; [32]
  inhibition at 10 µM: 0%
[9]; [33]
  inhibition at 10 µM: 0%
[10]; [34]
  inhibition at 10 µM: 0%
[11]; [35]
  inhibition at 10 µM: 21.7%
[12]; [36]
  inhibition at 10 µM: 4.49%
[13]; [37]
  inhibition at 10 µM: 11.6%
[14]; [38]
  inhibition at 10 µM: 0.98%
[15]; [39]
  inhibition at 10 µM: 0%
[16]; [40]
  inhibition at 10 µM: 0%
[17]; [41]
  inhibition at 10 µM: 0%
[18]; [42]
  inhibition at 10 µM: 0%

## COc1ccc(-c2nc3cc(-c4nnc(SCC(=O)Nc5ccc(C(=O)/C=C/c6ccc(Cl)cc6)cc5)o4)ccc3[nH]2)cc1OC [Compound 7q, 2-{5-[2-(3,4-Dimethoxyphenyl)-1 H-benzo[d]imidazol-5-yl]-1,3,4-oxadiazol-2-ylthio}-N-{4-[(E)-3-(4-chlorophenyl)acryloyl]phenyl}acetamide]
other
  melting point: 194 to 195 °C
[1]
  viability at 96 h, 50 µM: 94%
[4]
  IC50: 3900 ± 300 nM
[6]
  IC50: 4700 ± 300 nM
[7]; [31]
  inhibition at 10 µM: 0%
[8]; [32]
  inhibition at 10 µM: 0%
[9]; [33]
  inhibition at 10 µM: 0%
[10]; [34]
  inhibition at 10 µM: 8.14%
[11]; [35]
  inhibition at 10 µM: 24.1%
[12]; [36]
  inhibition at 10 µM: 2.38%
[13]; [37]
  inhibition at 10 µM: 0%
[14]; [38]
  inhibition at 10 µM: 0%
[15]; [39]
  inhibition at 10 µM: 0%
[16]; [40]
  inhibition at 10 µM: 0%
[17]; [41]
  inhibition at 10 µM: 0%
[18]; [42]
  inhibition at 10 µM: 0%

## COc1ccc(-c2nc3cc(-c4nnc(SCC(=O)Nc5ccc(C(=O)/C=C/c6ccc(OC)c(OC)c6)cc5)o4)ccc3[nH]2)cc1 [Compound 7n, 2-{5-[2-(4-Methoxyphenyl)-1 H-benzo[d]imidazol-5-yl]-1,3,4-oxadiazol-2-ylthio}-N-{4-[(E)-3-(3,4-dimethoxyphenyl)acryloyl]phenyl}acetamide]
other
  melting point: 222 to 224 °C
[1]
  viability at 96 h, 50 µM: 92%
[4]
  IC50: 1400 ± 200 nM
[6]
  IC50: 3700 ± 200 nM
[7]; [19]
  inhibition at 10 µM: 0%
[8]; [20]
  inhibition at 10 µM: 0%
[9]; [21]
  inhibition at 10 µM: 13.6%
[10]; [22]
  inhibition at 10 µM: 4.36%
[11]; [23]
  inhibition at 10 µM: 55.5%
[12]; [24]
  inhibition at 10 µM: 16.2%
[13]; [25]
  inhibition at 10 µM: 38.8%
[14]; [26]
  inhibition at 10 µM: 23.4%
[15]; [27]
  inhibition at 10 µM: 13.4%
[16]; [28]
  inhibition at 10 µM: 5.22%
[17]; [29]
  inhibition at 10 µM: 1.66%
[18]; [30]
  inhibition at 10 µM: 0%
